This note sets out measurements from PubChem BioAssay (NCI).

Some test systems named below: EKVX NSCLC; SK-MEL-2 melanoma; UO-31 renal; M14 melanoma; NCI-H23 lung; KM12 colon; HOP-62 NSCLC; LOX IMVI melanoma; DU-145 prostate; HCT-15 colon.
Test in all cases: DTP human tumour cell line panel, 48 h

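Cells were grown in 96-well plates and exposed to each compound for 48 hours at five concentrations; endpoints were interpolated linearly between bracketing concentrations, or set to the highest concentration if not reached. GI50 marks 50% less growth. TGI: total growth inhibition.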 Some results are limits rather than exact numbers.

As for `COC(=O)N1CC2C3C4CC(C(c5ccccc5)=C4c4ccccc4)C3C21` (configuration not stated), the TGI amounted to 36.7 µM in the assay with EKVX NSCLC; 50.5 µM with SK-MEL-2 melanoma; 26 µM in the assay on UO-31 renal; 51.9 µM in the assay with M14 melanoma; 98.1 µM with NCI-H23 lung; 34.2 µM in the assay on KM12 colon. Besides, the TGI with HOP-62 NSCLC amounted to 42.5 µM; in the assay with LOX IMVI melanoma it was 25.6 µM; with DU-145 prostate, 34.5 µM.

As to `COC(=O)c1cnc(Cl)cn1`, the TGI was more than 100 µM in the assay on EKVX NSCLC; more than 100 µM in the assay with SK-MEL-2 melanoma; 36.9 µM in the assay with UO-31 renal; more than 100 µM in the assay with M14 melanoma; 54 µM with NCI-H23 lung; more than 100 µM with KM12 colon. The total growth inhibition concentration (TGI) in the assay on HOP-62 NSCLC was more than 100 µM; with LOX IMVI melanoma, more than 100 µM; with DU-145 prostate it was more than 100 µM; in the assay on HCT-15 colon, 38.5 µM.

On to `CC(C)C(N)=O`, for which the TGI with SK-MEL-2 melanoma, in the assay on UO-31 renal, in the assay on M14 melanoma, with NCI-H23 lung, in the assay on KM12 colon and in the assay on HOP-62 NSCLC was more than 5000 µM throughout. In addition, the TGI with LOX IMVI melanoma and in the assay on HCT-15 colon was more than 5000 µM throughout.

For the compound `O=C(O)/C(Cc1ccc([N+](=O)[O-])cc1)=N\O`, the TGI in the assay with EKVX NSCLC, in the assay on SK-MEL-2 melanoma, with UO-31 renal, in the assay with M14 melanoma, with NCI-H23 lung and in the assay on KM12 colon was more than 100 µM in each case. The TGI in the assay on HOP-62 NSCLC, in the assay on LOX IMVI melanoma, in the assay with DU-145 prostate and in the assay on HCT-15 colon was more than 100 µM each time.

As to `O=C(Nc1ccc(-n2ccc3c(NC(=O)c4ccccc4)ncnc32)cc1)Nc1cccc(Cl)c1Cl`, the GI50 in the assay with EKVX NSCLC was 1.3 µM; with SK-MEL-2 melanoma, 1.33 µM; in the assay on UO-31 renal, 0.786 µM; with M14 melanoma it was 0.973 µM; in the assay on NCI-H23 lung it was 1.64 µM; in the assay on KM12 colon, 1.15 µM. Further, the GI50 was 0.983 µM in the assay with HOP-62 NSCLC, 0.763 µM with LOX IMVI melanoma, 1.47 µM in the assay on DU-145 prostate and 0.156 µM in the assay on HCT-15 colon. Moreover, the TGI in the assay on EKVX NSCLC stood at 4.59 µM; in the assay on SK-MEL-2 melanoma, 3.88 µM; in the assay with UO-31 renal, 1.56 µM; in the assay on M14 melanoma, 2.11 µM; with NCI-H23 lung, 11 µM; with KM12 colon it was 6.57 µM. For the same compound, the TGI turned out to be 2.15 µM in the assay with HOP-62 NSCLC, 2.04 µM in the assay with LOX IMVI melanoma, 3.85 µM with DU-145 prostate and 5.42 µM in the assay with HCT-15 colon.

For `CCOC(=O)CC1(c2cccc3ccccc23)OC(=O)c2ccccc21` (configuration not stated), the TGI with EKVX NSCLC was more than 100 µM; in the assay on SK-MEL-2 melanoma, more than 100 µM; in the assay with UO-31 renal, 65.9 µM; in the assay on NCI-H23 lung, 69.2 µM; with KM12 colon it was more than 100 µM; in the assay with LOX IMVI melanoma it was more than 100 µM. Moreover, in the assay on HCT-15 colon, the TGI is more than 100 µM.

Regarding `O=C(O)CC1NCc2cc3ccccc3nc21` (configuration not stated), the TGI in the assay with EKVX NSCLC, in the assay on SK-MEL-2 melanoma, in the assay on UO-31 renal, with M14 melanoma, with NCI-H23 lung and in the assay on KM12 colon was more than 100 µM in each case. Also, the TGI with HOP-62 NSCLC, in the assay with LOX IMVI melanoma, with DU-145 prostate and in the assay with HCT-15 colon was more than 100 µM throughout.

As to `CC(=O)NC1=C[C@@H]([C@H]2COC(C)(C)O2)OC1=O`, the TGI in the assay with EKVX NSCLC, in the assay with SK-MEL-2 melanoma, in the assay with UO-31 renal, in the assay with NCI-H23 lung, with KM12 colon and with HOP-62 NSCLC was more than 100 µM in each case. In addition, the TGI with LOX IMVI melanoma and in the assay on HCT-15 colon was more than 100 µM in each case.

As to `O=C1Nc2ccc(Cl)cc2/C1=C\c1c(Cl)nc2sccn12`, the TGI in the assay on SK-MEL-2 melanoma was more than 100 µM; in the assay with UO-31 renal, more than 100 µM; with M14 melanoma, more than 100 µM; with NCI-H23 lung, more than 100 µM; with KM12 colon, 23.4 µM; in the assay with HOP-62 NSCLC, 96.3 µM. Also, the TGI with LOX IMVI melanoma, in the assay with DU-145 prostate and in the assay with HCT-15 colon was more than 100 µM throughout.

Consider `C=C(OC1C(C)=C2C(C1OC(=O)CCCCCCC)C(C)(OC(C)=O)CC(OC(=O)CCC)C1(O)C2OC(=O)C1(C)O)/C(C)=C/C` (configuration not stated), for which the GI50 was less than 0.0001 µM in the assay with EKVX NSCLC; less than 0.0001 µM with SK-MEL-2 melanoma; 0.17 µM with UO-31 renal; less than 0.0001 µM in the assay on NCI-H23 lung; less than 0.0001 µM with KM12 colon; less than 0.0001 µM in the assay on HOP-62 NSCLC. The GI50 was less than 0.0001 µM in the assay on LOX IMVI melanoma and 0.0842 µM in the assay with HCT-15 colon. In addition, the TGI worked out at 0.896 µM in the assay on EKVX NSCLC; 0.0642 µM in the assay with SK-MEL-2 melanoma; 0.614 µM in the assay with UO-31 renal; 3.82 µM in the assay on NCI-H23 lung; 3.63 µM with KM12 colon; 15 µM in the assay with HCT-15 colon.

In the case of `c1csc(C[N+]23CN4CN(CN(C4)C2)C3)c1`, the TGI was 37.3 µM in the assay with SK-MEL-2 melanoma; more than 100 µM in the assay with UO-31 renal; 32.2 µM in the assay with M14 melanoma; more than 100 µM in the assay on NCI-H23 lung; more than 100 µM in the assay with KM12 colon; 46.6 µM with HOP-62 NSCLC. The TGI in the assay with HCT-15 colon stood at 77.2 µM.

What is called TGI is the concentration giving total growth inhibition. A high value points to less potent growth arrest. For orientation: GI50 means the concentration at which growth is held to half of that of the control.
